Results as given in patent US10227334B2, “Estrogen receptor modulators and uses thereof” (Genentech, Inc., priority 2013, dated 2019).

Assays:
MCF-7 cells = assay: Breast cancer cell viability assay (MCF7, CellTiter-Glo); settings: for IC50: read-out: MCF7 Viability Assay: IC50, 5 days' compound exposure; for MCF7 Viability Assay: % Viability relative to Fulvestrant: 5 days' compound exposure
ER-α = ER-α (Homo sapiens (Human), UniProt P03372); assay: Breast cancer cell ER-α In-Cell Western assay (SP1); assay type: cell-based; settings: MCF7 cells, 4 hours post compound addition
ER-α, sequence (P03372 whole entry): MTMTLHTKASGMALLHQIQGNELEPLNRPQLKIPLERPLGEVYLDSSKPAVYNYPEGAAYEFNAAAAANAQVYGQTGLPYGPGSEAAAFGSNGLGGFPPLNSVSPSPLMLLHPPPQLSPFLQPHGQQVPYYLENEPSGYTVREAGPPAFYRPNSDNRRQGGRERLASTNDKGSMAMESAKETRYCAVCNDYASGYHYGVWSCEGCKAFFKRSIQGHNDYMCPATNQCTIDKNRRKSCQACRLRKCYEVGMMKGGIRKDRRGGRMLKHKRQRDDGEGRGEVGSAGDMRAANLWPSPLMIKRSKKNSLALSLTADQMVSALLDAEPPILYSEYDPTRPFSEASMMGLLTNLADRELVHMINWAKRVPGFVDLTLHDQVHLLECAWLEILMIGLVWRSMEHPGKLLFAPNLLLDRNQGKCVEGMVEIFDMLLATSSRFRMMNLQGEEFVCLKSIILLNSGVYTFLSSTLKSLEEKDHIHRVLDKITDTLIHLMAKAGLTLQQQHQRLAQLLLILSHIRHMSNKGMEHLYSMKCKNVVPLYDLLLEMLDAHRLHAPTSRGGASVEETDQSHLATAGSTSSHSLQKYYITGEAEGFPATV
Protocol: MCF7 cells were trypsinized and washed twice in Phenol Red Free RPMI containing 5% Charcoal Dextran Stripped serum with 20 mM HEPES and NEAA, then adjusted to a concentration of 200,000 cells per mL with the same medium. Next, 16 μL of the cell suspension (3200 cells) was added to each well of a poly-D-lysine coated 384 well plate, and the cells were incubated at 37° C. over 4 days to allow the cells to adhere and grow. […] At 4 hours post compound addition, the cells were fixed by adding 16 μL of 30% formalin to the 32 μL of cells and compound (10% formalin final concentration) for 20 minutes. Cells were then washed twice with PBS Tween 0.1% and then permeabilized in PBS 0.1% Triton (50 μl/well) for additional 15 minutes. The PBS 0.1% triton was decanted, and the cells were washed: LI-COR blocking buffer (50 μL/well) was added, the plate was spun at 3000 rpm, and then the blocking buffer was decanted. Additional LI-COR blocking buffer (50 μL/well) was added, and the cells were incubated overnight at 4° C. The blocking buffer was decanted, and the cells were incubated overnight at 4° C. with SP1 (Thermo Scientific) anti-ER rabbit monoclonal antibody diluted 1:1000 in LI-COR blocking buffer/0.1% Tween-20. Wells which were treated with blocking buffer with Tween but no antibody were used as a background control. Wells were washed twice with PBS Tween 0.1% to remove free SP1 antibodies, and the cells were incubated at room temp for 60-90 minutes in LI-COR goat anti-rabbit IRDye™ 800CW (1:1000) and DRAQ5 DNA dye (1:10000 of 5 mM stock solution) diluted in LI-COR blocking buffer containing 0.1% Tween-20 and 0.01% SDS. Cells were then washed with 0.1% Tween-20/PBS three times. Plates were scanned on a LI-COR Odyssey infrared imaging system. Integrated intensities in the 800 nm channel and 700 nm channel were measured to determine levels of ER-α and DNA respectively. Percent ER levels were determined as follows: (Integrated intensity 800 nm sample/integrated intensity 700 nm sample)/(Integrated intensity 800 nm untreated cells/integrated intensity 700 nm untreated cells)×100=% ER-α levels.

[1] = test system: tamoxifen resistant MCF-7 tumors; assay: Breast cancer model: xenograft assay (MCF-7 derivative, tamoxifen resistant); assay type: in vivo; settings: female nu/nu mice
Protocol: Female nu/nu mice (with supplemental 17-β Estradiol pellets; 0.72 mg; 60 day slow release) bearing MCF-7 tumors (mean tumor volume 200 mm^3) were treated with Tamoxifen (citrate) by oral gavage. Tumor volume (length×width^2/2) and body weight were monitored twice weekly. Following a significant anti-tumor response in which tumor volume remained static, evident tumor growth was first observed at approximately 100 days of treatment. At 120 days of treatment, tamoxifen dose was increased. Rapidly growing tumors were deemed tamoxifen resistant and selected for in vivo passage into new host animals. Tumor Fragments (˜100 mm^3/animal) from the tamoxifen resistant tumors were subcutaneously implanted into the right flank of female nu/nu mice (with 17-β Estradiol pellets (0.72 mg; 60 day slow release)). Passaged tumors were maintained under constant Tamoxifen selection, and Tumor volume (length×width^2/2) was monitored weekly. When tumor volume reached ˜150-250 mm^3, animals were randomized into treatment groups (mean tumor volume 200 mm^3) and tamoxifen treatment was terminated (except for a tamoxifen control arm). Animals were treated with Vehicle or Compound daily for 4 weeks. Tumor volume and body weight were monitored twice weekly for the duration of the study. At the conclusion of the treatment period; plasma and tumor samples were taken for pharmacokinetic and pharmacodynamic analyses, respectively.

Structure (SMILES)	IC50 (MCF-7 cells)	ER-α In-Cell Western Assay (SP1): % ER-α remaining relative to Fulvestrant (ER-α)	MCF7 Viability Assay: % Viability relative to Fulvestrant (MCF-7 cells)	IC50 (ER-α)	Number of Tumors Smaller at t = 27 days than at Start of study (t = 0 days) ([1]; 10 mpk oral dose each day)	Number of Tumors Smaller at t = 27 days than at Start of study (t = 0 days) ([1]; 30 mpk oral dose each day)	Number of Tumors Smaller at t = 27 days than at Start of study (t = 0 days) ([1]; 100 mpk oral dose each day)
CC1=C(c2cccc(O)c2)C(c2ccc(OCCN3CC(CF)C3)cc2)Oc2ccc(O)cc21 (racemic) [Example 1, (±)-2-(4-(2-(3-(Fluoromethyl)azetidin-1-yl)ethoxy)phenyl)-3-(3-hydroxyphenyl)-4-methyl-2H-chromen-6-ol]	0.21 nM						
CC1=C(c2cccc(O)c2)C(c2ccc(OCCN3CC(C)C3)cc2)Oc2ccc(O)cc21 (racemic) [Example 4, 3-(3-Hydroxyphenyl)-4-methyl-2-(4-(2-(3-methylazetidin-1-yl)ethoxy)phenyl)-2H-chromen-6-ol]		14%	13%				
CC1=C(c2cccc(O)c2)C(c2ccc(OCCN3CCC3)cc2)Oc2ccc(O)cc21 (centres unmarked) [2-(4-(2-(azetidin-1-yl)ethoxy)phenyl)-3-(3-hydroxyphenyl)-4-methyl-2H-chromen-6-ol]		24%	25%				
CC1=C(c2cccc(O)c2)C(c2ccc(OC[C@H](C)N3CC[C@@H](F)C3)cc2)Oc2ccc(O)cc21 (stereo partly drawn) [2-(4-((S)-2-((R)-3-fluoropyrrolidin-1-yl)propoxy)phenyl)-3-(3-hydroxyphenyl)-4-methyl-2H-chromen-6-ol]		8%	16%				
CC1=C(c2cccc(O)c2)C(c2ccc(OC[C@H](C)N3CCC3)cc2)Oc2ccc(O)cc21 (stereo partly drawn) [2-(4-((S)-2-(azetidin-1-yl)propoxy)phenyl)-3-(3-hydroxyphenyl)-4-methyl-2H-chromen-6-ol]		33%	30%				
CC1=C(c2cccc(O)c2)[C@H](c2ccc(OC[C@H](C)N3CC[C@@H](C)C3)cc2)Oc2ccc(O)cc21 [(S)-3-(3-Hydroxyphenyl)-4-methyl-2-(4-((S)-2-((R)-3-methylpyrrolidin-1-yl)propoxy)phenyl)-2H-chromen-6-ol]	0.13 nM		8%	0.11 nM	0/8	1/8	1/8
CC1=C(c2cccc(O)c2)[C@@H](c2ccc(OCCN3CC(CF)C3)cc2)Oc2ccc(O)cc21 [Example 2, (R)-2-(4-(2-(3-(Fluoromethyl)azetidin-1-yl)ethoxy)phenyl)-3-(3-hydroxyphenyl)-4-methyl-2H-chromen-6-ol]	4.3 nM						
CC1=C(c2cccc(O)c2)[C@H](c2ccc(OCCN3CC(CF)C3)cc2)Oc2ccc(O)cc21 [Example 3, (S)-2-(4-(2-(3-(fluoromethyl)azetidin-1-yl)ethoxy)phenyl)-3-(3-hydroxyphenyl)-4-methyl-2H-chromen-6-ol]	0.07 nM				0/5	2/8	5/8
